Source: ChEMBL document CHEMBL4507270 (2021)
Activity calls are given as the source filed them.

Legend:
[1] = molecular target: Serine/threonine-protein kinase Nek5 (Homo sapiens) (UniProt Q6P3R8)
[2] = test system: Tyrosine-protein kinase ABL1 (Homo sapiens), P00519 [H396P]
[3] = molecular target: 5-hydroxytryptamine receptor 1D (Homo sapiens) (UniProt P28221); settings: Compound concentration 10.0 uM
[4] = molecular target: Serine/threonine-protein kinase Nek6 (Homo sapiens) (UniProt Q9HC98)
[5] = molecular target: Tyrosine-protein kinase HCK (Homo sapiens) (UniProt P08631)
[6] = molecular target: Serine/threonine-protein kinase Nek10 (Homo sapiens) (UniProt Q6ZWH5)
[7] = molecular target: LIM domain kinase 2 (Homo sapiens) (UniProt P53671)
[8] = molecular target: Phosphatidylinositol 4,5-bisphosphate 3-kinase catalytic subunit delta isoform (Homo sapiens) (UniProt O00329)
[9] = molecular target: Serine/threonine-protein kinase PAK 3 (Homo sapiens) (UniProt O75914)
[10] = molecular target: Phosphatidylinositol 4-phosphate 5-kinase type-1 alpha (Homo sapiens) (UniProt Q99755)
[11] = molecular target: Tyrosine-protein kinase SYK (Homo sapiens) (UniProt P43405)
[12] = molecular target: Phosphatidylinositol 4,5-bisphosphate 3-kinase catalytic subunit gamma isoform (Homo sapiens) (UniProt P48736)
[13] = molecular target: Serine/threonine-protein kinase ULK3 (Homo sapiens) (UniProt Q6PHR2)
[14] = molecular target: Dual specificity mitogen-activated protein kinase kinase 2 (Homo sapiens) (UniProt P36507)
[15] = molecular target: Serine/threonine-protein kinase pim-3 (Homo sapiens) (UniProt Q86V86)
[16] = molecular target: Dual specificity mitogen-activated protein kinase kinase 5 (Homo sapiens) (UniProt Q13163)
[17] = molecular target: Serine/threonine-protein kinase PLK1 (Homo sapiens) (UniProt P53350)
[18] = molecular target: Calcium/calmodulin-dependent protein kinase type II subunit beta (Homo sapiens) (UniProt Q13554)
[19] = molecular target: Histamine H2 receptor (Homo sapiens) (UniProt P25021); settings: Compound concentration 10.0 uM
[20] = molecular target: Tyrosine-protein kinase Blk (Homo sapiens) (UniProt P51451)
[21] = molecular target: RAC-gamma serine/threonine-protein kinase (Homo sapiens) (UniProt Q9Y243)
[22] = molecular target: Dual specificity mitogen-activated protein kinase kinase 1 (Homo sapiens) (UniProt Q02750)
[23] = molecular target: Myotonin-protein kinase (Homo sapiens) (UniProt Q09013)
[24] = molecular target: Serine/threonine-protein kinase MARK1 (Homo sapiens) (UniProt Q9P0L2)
[25] = test system: Phosphatidylinositol 4,5-bisphosphate 3-kinase catalytic subunit alpha isoform (Homo sapiens), P42336 [Q546K]
[26] = molecular target: Protein kinase C delta type (Homo sapiens) (UniProt Q05655)
[27] = molecular target: Serine/threonine-protein kinase PLK2 (Homo sapiens) (UniProt Q9NYY3)
[28] = molecular target: Angiopoietin-1 receptor (Homo sapiens, UniProt Q02763); assay: NanoBRET assay (SGC Frankfurt) with TEK
[29] = molecular target: Alpha-1A adrenergic receptor (Homo sapiens) (UniProt P35348); settings: Compound concentration 10.0 uM
[30] = test system: Phosphatidylinositol 4,5-bisphosphate 3-kinase catalytic subunit alpha isoform (Homo sapiens), P42336 [H1047Y]
[31] = molecular target: Serine/threonine-protein kinase PLK3 (Homo sapiens) (UniProt Q9H4B4)
[32] = molecular target: Serine/threonine-protein kinase N1 (Homo sapiens) (UniProt Q16512)
[33] = molecular target: Cyclin-dependent kinase 18 (Homo sapiens) (UniProt Q07002)
[34] = test system: Tyrosine-protein kinase ABL1 (Homo sapiens), P00519 [Q252H]
[35] = molecular target: Myosin light chain kinase family member 4 (Homo sapiens) (UniProt Q86YV6)
[36] = molecular target: Fibroblast growth factor receptor 2 (Homo sapiens) (UniProt P21802)
[37] = molecular target: Serine/threonine-protein kinase SIK1 (Homo sapiens) (UniProt P57059)
[38] = molecular target: Casein kinase I isoform alpha-like (Homo sapiens) (UniProt Q8N752)
[39] = molecular target: Kappa-type opioid receptor (Homo sapiens, UniProt P41145); settings: Compound concentration 10.0 uM
[40] = molecular target: Receptor-interacting serine/threonine-protein kinase 2 (Homo sapiens) (UniProt O43353)
[41] = molecular target: Receptor tyrosine-protein kinase erbB-2 (Homo sapiens) (UniProt P04626)
[42] = molecular target: Vascular endothelial growth factor receptor 3 (Homo sapiens, UniProt P35916)
[43] = molecular target: Serine/threonine-protein kinase SIK2 (Homo sapiens) (UniProt Q9H0K1)
[44] = test system: Proto-oncogene tyrosine-protein kinase receptor Ret (Homo sapiens), P07949 [V804L]
[45] = molecular target: Cyclin-dependent kinase 3 (Homo sapiens) (UniProt Q00526)
[46] = Compound concentration 1000.0 nM
[47] = Compound concentration 100.0 nM

Chain of Angiopoietin-1 receptor (Q02763 whole entry): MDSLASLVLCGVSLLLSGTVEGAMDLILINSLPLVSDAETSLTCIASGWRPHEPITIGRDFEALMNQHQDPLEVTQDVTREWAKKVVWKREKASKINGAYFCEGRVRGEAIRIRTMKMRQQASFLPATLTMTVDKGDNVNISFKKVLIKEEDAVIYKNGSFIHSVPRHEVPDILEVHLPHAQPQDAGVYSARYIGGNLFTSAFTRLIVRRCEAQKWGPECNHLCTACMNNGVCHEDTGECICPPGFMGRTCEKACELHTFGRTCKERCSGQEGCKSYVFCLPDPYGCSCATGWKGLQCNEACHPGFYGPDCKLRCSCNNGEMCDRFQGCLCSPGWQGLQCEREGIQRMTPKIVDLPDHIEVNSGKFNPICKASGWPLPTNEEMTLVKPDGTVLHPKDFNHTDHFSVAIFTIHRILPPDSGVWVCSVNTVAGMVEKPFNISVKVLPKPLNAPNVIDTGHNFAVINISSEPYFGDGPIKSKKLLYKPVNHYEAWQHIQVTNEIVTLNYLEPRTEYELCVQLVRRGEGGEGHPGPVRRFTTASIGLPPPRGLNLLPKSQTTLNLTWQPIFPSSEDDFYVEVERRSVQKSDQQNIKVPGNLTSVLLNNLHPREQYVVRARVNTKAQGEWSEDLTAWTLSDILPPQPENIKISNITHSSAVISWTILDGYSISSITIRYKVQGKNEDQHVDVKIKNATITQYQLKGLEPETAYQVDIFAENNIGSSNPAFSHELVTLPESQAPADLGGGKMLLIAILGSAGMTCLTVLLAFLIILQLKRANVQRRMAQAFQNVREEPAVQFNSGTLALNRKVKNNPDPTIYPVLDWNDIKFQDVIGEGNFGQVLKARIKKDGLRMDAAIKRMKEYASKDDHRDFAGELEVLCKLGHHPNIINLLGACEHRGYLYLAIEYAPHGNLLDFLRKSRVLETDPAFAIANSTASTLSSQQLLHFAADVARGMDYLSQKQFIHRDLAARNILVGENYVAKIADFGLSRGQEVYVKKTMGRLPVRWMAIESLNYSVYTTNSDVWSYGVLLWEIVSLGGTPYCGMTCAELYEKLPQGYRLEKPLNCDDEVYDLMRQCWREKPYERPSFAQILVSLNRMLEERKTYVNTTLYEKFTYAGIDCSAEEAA
Chain of Calcium/calmodulin-dependent protein kinase type II subunit beta (Homo sapiens) (Q13554 whole entry): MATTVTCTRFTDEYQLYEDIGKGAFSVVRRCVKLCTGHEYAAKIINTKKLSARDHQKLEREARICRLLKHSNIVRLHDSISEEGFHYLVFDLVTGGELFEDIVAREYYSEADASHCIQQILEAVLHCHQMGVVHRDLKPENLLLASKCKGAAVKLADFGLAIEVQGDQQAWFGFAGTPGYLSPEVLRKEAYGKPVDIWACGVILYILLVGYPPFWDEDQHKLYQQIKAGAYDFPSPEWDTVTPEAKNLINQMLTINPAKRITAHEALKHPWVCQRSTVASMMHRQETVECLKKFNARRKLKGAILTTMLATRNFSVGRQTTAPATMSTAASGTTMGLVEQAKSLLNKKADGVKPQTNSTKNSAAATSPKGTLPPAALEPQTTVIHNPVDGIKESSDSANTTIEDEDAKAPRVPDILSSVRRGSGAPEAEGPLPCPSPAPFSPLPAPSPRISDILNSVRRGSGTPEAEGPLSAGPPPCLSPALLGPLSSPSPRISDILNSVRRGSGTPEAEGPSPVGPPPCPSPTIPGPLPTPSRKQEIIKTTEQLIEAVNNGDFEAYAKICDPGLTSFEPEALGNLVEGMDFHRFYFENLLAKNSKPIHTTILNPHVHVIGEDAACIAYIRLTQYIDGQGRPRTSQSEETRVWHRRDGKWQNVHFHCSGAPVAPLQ
Chain of Receptor tyrosine-protein kinase erbB-2 (Homo sapiens) (P04626 whole entry): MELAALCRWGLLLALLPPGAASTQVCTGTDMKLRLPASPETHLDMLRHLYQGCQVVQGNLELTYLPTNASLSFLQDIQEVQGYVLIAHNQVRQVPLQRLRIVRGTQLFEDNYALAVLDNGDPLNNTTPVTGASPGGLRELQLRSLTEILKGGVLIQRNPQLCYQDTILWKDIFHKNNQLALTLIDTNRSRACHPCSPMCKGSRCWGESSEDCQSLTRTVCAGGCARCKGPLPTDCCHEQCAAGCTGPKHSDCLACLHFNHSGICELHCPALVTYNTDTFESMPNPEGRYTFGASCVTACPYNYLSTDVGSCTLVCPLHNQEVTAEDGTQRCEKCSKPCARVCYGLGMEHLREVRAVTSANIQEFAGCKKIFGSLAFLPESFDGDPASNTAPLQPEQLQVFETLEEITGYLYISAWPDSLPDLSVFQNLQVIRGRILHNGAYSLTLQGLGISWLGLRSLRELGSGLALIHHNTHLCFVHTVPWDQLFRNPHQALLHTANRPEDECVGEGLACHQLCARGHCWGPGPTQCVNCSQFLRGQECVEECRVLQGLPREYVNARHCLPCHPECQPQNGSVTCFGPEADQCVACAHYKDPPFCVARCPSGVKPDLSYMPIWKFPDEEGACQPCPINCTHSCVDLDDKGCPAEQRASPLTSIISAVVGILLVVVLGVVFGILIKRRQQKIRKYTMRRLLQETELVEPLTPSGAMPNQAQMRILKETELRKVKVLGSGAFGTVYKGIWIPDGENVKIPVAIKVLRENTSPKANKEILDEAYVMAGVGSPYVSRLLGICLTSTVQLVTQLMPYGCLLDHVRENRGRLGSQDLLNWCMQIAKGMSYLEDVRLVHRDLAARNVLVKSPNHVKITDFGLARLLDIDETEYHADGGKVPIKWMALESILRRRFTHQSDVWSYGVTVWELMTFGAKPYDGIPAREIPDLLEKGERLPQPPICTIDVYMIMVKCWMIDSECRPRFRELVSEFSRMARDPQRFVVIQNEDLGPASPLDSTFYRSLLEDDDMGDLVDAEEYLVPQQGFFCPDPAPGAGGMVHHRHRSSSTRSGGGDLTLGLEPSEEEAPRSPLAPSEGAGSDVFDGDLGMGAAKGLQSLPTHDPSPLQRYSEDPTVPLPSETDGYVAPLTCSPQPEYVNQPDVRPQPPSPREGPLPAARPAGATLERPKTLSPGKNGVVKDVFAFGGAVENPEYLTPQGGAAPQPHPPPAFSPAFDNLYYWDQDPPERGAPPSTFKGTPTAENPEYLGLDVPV
Chain of Phosphatidylinositol 4,5-bisphosphate 3-kinase catalytic subunit gamma isoform (Homo sapiens) (P48736 whole entry, looked up, canonical isoform): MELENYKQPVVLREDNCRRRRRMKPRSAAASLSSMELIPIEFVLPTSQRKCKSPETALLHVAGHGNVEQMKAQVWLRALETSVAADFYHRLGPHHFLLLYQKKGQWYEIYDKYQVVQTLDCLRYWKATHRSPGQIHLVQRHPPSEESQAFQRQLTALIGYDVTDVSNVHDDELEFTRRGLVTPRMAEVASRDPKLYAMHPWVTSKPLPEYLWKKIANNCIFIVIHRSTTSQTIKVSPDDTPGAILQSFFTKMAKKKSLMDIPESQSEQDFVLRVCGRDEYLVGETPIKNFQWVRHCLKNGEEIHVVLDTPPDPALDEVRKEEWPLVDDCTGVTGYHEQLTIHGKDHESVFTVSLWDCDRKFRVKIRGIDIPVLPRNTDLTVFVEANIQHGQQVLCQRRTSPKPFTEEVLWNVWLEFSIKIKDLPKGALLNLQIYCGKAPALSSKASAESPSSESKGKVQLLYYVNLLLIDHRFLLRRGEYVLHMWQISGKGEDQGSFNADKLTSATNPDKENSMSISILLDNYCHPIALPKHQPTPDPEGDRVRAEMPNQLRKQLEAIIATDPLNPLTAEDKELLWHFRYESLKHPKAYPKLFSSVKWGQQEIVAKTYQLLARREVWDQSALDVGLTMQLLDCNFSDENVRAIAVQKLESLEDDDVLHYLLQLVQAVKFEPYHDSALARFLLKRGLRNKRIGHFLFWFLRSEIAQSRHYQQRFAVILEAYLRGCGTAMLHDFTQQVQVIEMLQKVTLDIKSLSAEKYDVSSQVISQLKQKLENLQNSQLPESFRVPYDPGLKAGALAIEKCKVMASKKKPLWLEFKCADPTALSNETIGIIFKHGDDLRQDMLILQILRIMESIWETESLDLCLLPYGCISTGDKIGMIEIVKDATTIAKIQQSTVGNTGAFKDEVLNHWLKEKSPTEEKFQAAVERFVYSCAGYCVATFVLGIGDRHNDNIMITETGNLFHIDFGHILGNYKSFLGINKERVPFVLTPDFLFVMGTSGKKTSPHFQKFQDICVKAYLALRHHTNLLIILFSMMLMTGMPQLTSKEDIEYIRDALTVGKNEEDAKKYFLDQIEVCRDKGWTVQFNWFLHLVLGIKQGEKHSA
Chain of Dual specificity mitogen-activated protein kinase kinase 5 (Homo sapiens) (Q13163 whole entry): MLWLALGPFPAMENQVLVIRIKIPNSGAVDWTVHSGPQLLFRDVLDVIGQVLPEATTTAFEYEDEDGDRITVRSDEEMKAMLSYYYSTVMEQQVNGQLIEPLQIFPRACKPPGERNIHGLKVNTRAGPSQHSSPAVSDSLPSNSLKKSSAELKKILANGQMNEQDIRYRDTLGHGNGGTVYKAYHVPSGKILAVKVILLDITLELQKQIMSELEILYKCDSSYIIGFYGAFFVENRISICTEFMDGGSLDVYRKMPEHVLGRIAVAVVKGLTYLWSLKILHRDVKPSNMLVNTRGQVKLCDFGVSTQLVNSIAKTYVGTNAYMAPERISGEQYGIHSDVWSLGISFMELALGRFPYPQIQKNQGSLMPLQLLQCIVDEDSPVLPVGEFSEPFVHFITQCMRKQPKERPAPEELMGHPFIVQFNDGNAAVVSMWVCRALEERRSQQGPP

Cc1cc(NC(=O)c2cccc(S(F)(F)(F)(F)F)c2)cc(-n2ccn3nc(-c4cccnc4)cc23)c1 [BAY-309]
3300 nM (not active): EC50 [28]
inactive: residual activity [1, 46] 86.8% | residual activity [2, 46] 100% | inhibition [3] 15.4% | residual activity [4, 46] 97% | residual activity [5, 46] 98.7% | residual activity [7, 46] 95.3% | residual activity [8, 46] 100% | residual activity [9, 46] 100% | residual activity [10, 46] 100% | residual activity [11, 46] 95.5% | residual activity [12, 46] 100% | residual activity [13, 46] 75.2% | residual activity [14, 46] 93.3% | residual activity [15, 46] 100% | residual activity [17, 46] 95.3% | residual activity [18, 46] 100% | inhibition [19] 46.1% | residual activity [20, 46] 100% | residual activity [21, 46] 100% | residual activity [22, 46] 100% | residual activity [23, 46] 100% | residual activity [24, 46] 100% | residual activity [25, 46] 100% | residual activity [26, 46] 95.8% | residual activity [27, 46] 100% | inhibition [29] 5.89% | residual activity [31, 46] 69.4% | residual activity [32, 46] 100% | residual activity [33, 46] 80.6% | residual activity [35, 46] 91.4% | residual activity [36, 46] 81.7% | residual activity [37, 46] 100% | residual activity [38, 46] 100% | residual activity [40, 46] 88.6% | residual activity [41, 46] 100% | residual activity [42, 46] 82.3% | residual activity [43, 46] 100% | residual activity [44, 46] 100% | residual activity [45, 46] 100%
active: residual activity [6, 46] 37.6% | residual activity [16, 46] 35.9% | residual activity [30, 46] 22.9% | residual activity [34, 46] 49.2% | inhibition [39] 64.8%
1100 nM (not active): IC50 [28]

Cc1cc(C)c(-n2ccn3nc(-c4cccnc4)cc23)cc1NC(=O)c1cc(C#N)cc(S(F)(F)(F)(F)F)c1 [BAY-826]
inactive: residual activity [1, 47] 87.8% | residual activity [2, 47] 87.5% | inhibition [3] 9.27% | residual activity [4, 47] 93.9% | residual activity [5, 47] 72.1% | residual activity [6, 47] 100% | residual activity [7, 47] 89% | residual activity [8, 47] 76.9% | residual activity [10, 47] 95% | residual activity [11, 47] 100% | residual activity [12, 47] 98.5% | residual activity [13, 47] 100% | residual activity [14, 47] 74.4% | residual activity [15, 47] 83.1% | residual activity [16, 47] 91.8% | residual activity [17, 47] 100% | residual activity [18, 47] 87.5% | inhibition [19] 25.6% | residual activity [20, 47] 100% | residual activity [21, 47] 95.6% | residual activity [22, 47] 76.2% | residual activity [23, 47] 95.6% | residual activity [24, 47] 96.7% | residual activity [25, 47] 100% | residual activity [26, 47] 93.1% | residual activity [27, 47] 83.3% | inhibition [29] -3.02% | residual activity [30, 47] 76.2% | residual activity [31, 47] 81.8% | residual activity [32, 47] 96.7% | residual activity [33, 47] 98.4% | residual activity [35, 47] 100% | residual activity [36, 47] 84.3% | residual activity [37, 47] 86.3% | residual activity [38, 47] 88.4% | residual activity [40, 47] 84.5% | residual activity [41, 47] 84.2% | residual activity [42, 47] 77.6% | residual activity [43, 47] 94.2% | residual activity [44, 47] 93.6% | residual activity [45, 47] 92.4%
active: residual activity [9, 47] 26.1% | EC50 [28] 1.7 nM | IC50 [28] 0.7 nM | residual activity [34, 47] 31.4% | inhibition [39] 89.4%
